This is an account of results in US5084453A, “1-carboxy-1-vinyloxyimino aminothiazole cephalosporin derivatives” (priority 1988, dated 1992).

Data set [1] is described as follows: concentration in blood after subcutaneous administration to mice (paper disk method, Morganella morganii IFO 3843). It counts as in vivo, mice (ddY, male). The settings on record: mouse, sc, 20 mg/kg subcutaneous. The procedure:
As a representative example, the compound of Example 15 was administered to mice by means of subcutaneous administration, and the concentration in the blood was measured. […] The test compound was dissolved in a physiological sodium chloride solution to obtain a formulation having a concentration of 2 mg/ml. […] Now, Ceftazidime was used as a comparative compound. Further, the antibacterial activities of the sample diluted by plasma to have an appropriate concentration were measured by the paper disk method using Morganella morganii IFO 3843 as the test bacterium.

In the next data set the test system is Ps. aeruginosa IFO3445. Briefly: in vitro antibacterial activity, agar plate dilution method. It counts as cell-based. The settings on record: Pseudomonas aeruginosa, IFO3445, 16 h. The procedure, abridged: (§1)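 Overnight Mueller Hinton broth cultures were loop-inoculated onto Mueller Hinton agar containing serial antibiotic concentrations. After 16 h at 37 °C, the MIC (μg/ml) was read.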

A further data set deals with M. morganii GN5407*. The description is as above. The settings on record: Morganella morganii, GN5407, 16 h. It counts as cell-based. The method, boiled down: as §1
Another data set deals with E. coli CSH2(RK1)*. The description is as above. It is filed as cell-based. The settings on record: Escherichia coli, 16 h. The method, boiled down: as §1
In the next data set the test system is S. aureus 209P NIHJ-JC1. The description is as above. It counts as cell-based. The settings on record: Staphylococcus aureus; 10^6 CFU/ml; Mueller Hinton agar, 37° C., 16 hours; read-out: MIC. The method, boiled down:
as §1

In a further data set the test system is Ps. aeruginosa AKR17. Described as above. The settings on record: Pseudomonas aeruginosa. It counts as cell-based. The method, boiled down: as §1
For the next data set, the system named is Ps. cepacia 23. The data set is described as above. It counts as cell-based. The settings on record: Burkholderia cepacia, 23; 10^6 CFU/ml; Mueller Hinton agar, 37° C., 16 hours; read-out: MIC. The procedure, abridged: as §1
Another data set relates to S. marcescens IAM 1184. Described as above. It counts as cell-based. The settings on record: Serratia marcescens, IAM1184, 16 h. The method, boiled down: as §1
The subject of a further data set is K. pneumoniae PC1-602. The data set is described as above. It is filed as cell-based. The settings on record: Klebsiella pneumoniae. The method, boiled down:
as §1

The subject of another data set is P. vulgaris HX-19. The description is as above. It is filed as cell-based. The settings on record: Proteus vulgaris. The method, boiled down:
as §1

The subject of another data set is E. cloacae Nek 39*. Described as above. The settings on record: Enterobacter cloacae. It is filed as cell-based. The method, boiled down:
as §1

Another data set concerns E. cloacae 963. The data set is described as above. It counts as cell-based. The settings on record: Enterobacter cloacae, 963, 16 h. The procedure, abridged:
as §1

The next data set relates to Ps. aeruginosa AK 109. Described as above. It counts as cell-based. The settings on record: Pseudomonas aeruginosa, AK109; 10^6 CFU/ml; Mueller Hinton agar, 37° C., 16 hours; read-out: MIC. The method, boiled down: as §1
Another data set relates to A. calcoaceticus No. 4. The data set is described as above. It is filed as cell-based. The settings on record: Acinetobacter calcoaceticus. The method, boiled down: as §1
The test system of the next data set is E. coli CSH(RE45)*. Described as above. The settings on record: Escherichia coli; 10^6 CFU/ml; β-Lactamase-producing strain; 37° C., 16 hours; read-out: MIC. It counts as cell-based. The method, boiled down: as §1
Another data set deals with K. oxytoca GN10650*. The description is as above. It is filed as cell-based. The settings on record: Klebsiella oxytoca, GN10650, 16 h. The method, boiled down:
as §1

The subject of another data set is K. pneumoniae No. 42*. The description is as above. It is filed as cell-based. The settings on record: Klebsiella pneumoniae, 16 h. The procedure, abridged: as §1
Another data set relates to E. coli NIHJ JC2. The data set is described as above. It is filed as cell-based. The settings on record: Escherichia coli, NIHJJC2; 10^6 CFU/ml; Mueller Hinton agar, 37° C., 16 hours; read-out: MIC. The procedure, abridged:
as §1

The subject of the next data set is S. marcescens No. 16-2*. The description is as above. It counts as cell-based. The settings on record: Serratia marcescens; 10^6 CFU/ml; β-Lactamase-producing strain; 37° C., 16 hours; read-out: MIC. The procedure, abridged: as §1
A further data set relates to P. vulgaris No. 33*. The data set is described as above. It counts as cell-based. The settings on record: Proteus vulgaris; 10^6 CFU/ml; β-Lactamase-producing strain; 37° C., 16 hours; read-out: MIC. The procedure, abridged:
as §1

The subject of a further data set is E. coli GN5482*. The data set is described as above. It is filed as cell-based. The settings on record: Escherichia coli, GN5482, 16 h. The method, boiled down:
as §1

Where two headings read alike, the source gives them in different places.

The term MIC denotes the lowest concentration found to suppress growth. In turn, `C=C(O/N=C(\C(=O)N[C@@H]1C(=O)N2C(C(=O)O)=C(CSc3nc(C(=O)O)c(-c4ccc(O)c(O)c4)s3)CS[C@H]12)c1csc(N)n1)C(=O)O` [Example 15, trisodium 78-[2-(2-aminothiazol-4-yl)-2-(1-carboxylato-1-vinyloxyimino)acetamido]-3-[4-carboxylato-5-(3,4-dihydroxyphenyl)thiazol-2-yl]thiomethyl-3-cephem-4-carboxylate (syn-isomer)] had a concentration at 0.125 h in [1] (7.5 min) of 33800 ng/mL. In addition, the concentration at 0.25 h in data set [1] (15 min) worked out at 45000 ng/mL. In data set [1] (30 min), the concentration at 0.5 h is 44300 ng/mL. The compound also registered a concentration at 1 h in data set [1] (60 min) of 21900 ng/mL. In data set [1] (120 min), this compound showed a concentration at 2 h of 7100 ng/mL. The compound also showed a concentration at 4 h in data set [1] (240 min) of 7200 ng/mL. Further, the MIC against Ps. aeruginosa IFO3445 is 1.56 µg/mL; in the data set with M. morganii GN5407*, 0.025 µg/mL; in the data set on E. coli CSH2(RK1)*, 0.0125 µg/mL; in the data set on S. aureus 209P NIHJ-JC1, 25 µg/mL; against Ps. aeruginosa AKR17 (AKR17, 16 h), 1.56 µg/mL; in the data set on Ps. cepacia 23 it was less than 0.006 µg/mL. Further, the minimal inhibitory concentration (MIC) is 0.05 µg/mL against S. marcescens IAM 1184; less than 0.006 µg/mL in the data set with K. pneumoniae PC1-602 (PC1602, 10^6 CFU/ml, Mueller Hinton agar, 37° C., 16 hours, read-out: MIC); 0.0125 µg/mL against P. vulgaris HX-19 (HX19, 16 h); 0.05 µg/mL in the data set with E. cloacae Nek 39* (16 h); 0.05 µg/mL in the data set on E. cloacae 963; 0.78 µg/mL in the data set with Ps. aeruginosa AK 109. The MIC in the data set with A. calcoaceticus No. 4 (NO.4, 16 h) was 0.39 µg/mL; in the data set with E. coli CSH(RE45)*, 0.05 µg/mL; with K. oxytoca GN10650* it was 0.1 µg/mL; against K. pneumoniae No. 42*, 0.1 µg/mL; with E. coli NIHJ JC2, 0.39 µg/mL; in the data set with S. marcescens No. 16-2* it was 0.78 µg/mL. Also, the MIC with P. vulgaris No. 33* was less than 0.006 µg/mL; with E. coli GN5482* it was 0.39 µg/mL.
Regarding `C=C(O/N=C(\C(=O)N[C@@H]1C(=O)N2C(C(=O)O)=C(CSc3nnnn3CC(=O)O)CS[C@H]12)c1csc(N)n1)C(=O)O` [Example 20, trisodium 7β-[2-(2-aminothiazol-4-yl)-2-(1-carboxylato-1-vinyloxyimino)acetamido]-3-(1-carboxylatomethyl-1H-tetrazol-5-yl)thiomethyl-3-cephem-4-carboxylate (syn-isomer)], the MIC in the data set with Ps. aeruginosa IFO3445 is 6.25 µg/mL; with M. morganii GN5407* it was 0.05 µg/mL; against E. coli CSH2(RK1)*, 0.2 µg/mL; in the data set with S. aureus 209P NIHJ-JC1, 25 µg/mL; in the data set with Ps. aeruginosa AKR17 (AKR17, 10^6 CFU/ml, Mueller Hinton agar, 37° C., 16 hours, read-out: MIC), greater than 100 µg/mL; in the data set with Ps. cepacia 23, 3.12 µg/mL. Further, the MIC against S. marcescens IAM 1184 was 0.05 µg/mL; against K. pneumoniae PC1-602 (PC1602, 16 h), 0.1 µg/mL; with P. vulgaris HX-19 (HX19, 10^6 CFU/ml, Mueller Hinton agar, 37° C., 16 hours, read-out: MIC), less than 0.006 µg/mL; with E. cloacae Nek 39* (10^6 CFU/ml, β-Lactamase-producing strain, 37° C., 16 hours, read-out: MIC), 3.12 µg/mL; against E. cloacae 963 it was 0.39 µg/mL; in the data set on Ps. aeruginosa AK 109, 12.5 µg/mL. The MIC in the data set with A. calcoaceticus No. 4 (NO.4, 10^6 CFU/ml, Mueller Hinton agar, 37° C., 16 hours, read-out: MIC) is 100 µg/mL; in the data set on E. coli CSH(RE45)*, 0.78 µg/mL; in the data set with K. oxytoca GN10650* it was 0.39 µg/mL; against K. pneumoniae No. 42*, 0.78 µg/mL; with E. coli NIHJ JC2, 0.39 µg/mL; in the data set with S. marcescens No. 16-2*, 3.12 µg/mL. Also, the minimal inhibitory concentration (MIC) with P. vulgaris No. 33* was less than 0.006 µg/mL; in the data set with E. coli GN5482* it was 1.56 µg/mL.
